In ChEMBL document CHEMBL1157225, “Highly N-methylated linear peptides produced by an atypical sponge-derived Acremonium sp” (2006):
≈ marks a conversion by molar mass, not a printed value. Where a SMILES comes first, the peptide text is derived from it. [ ]: non-standard residue; d: D form. The star is where a group is joined. X1 = CC(C)C[C@@H](C[N+]1=C2CCCN2CCC1)N*; Pip = O=C(O)[C@@H]1CCCCN1; Iva = CC[C@](C)(N)C(=O)O; Aib = CC(C)(N)C(=O)O; βAla = NCCC(=O)O

Tests used:
[1] = system: Staphylococcus epidermidis; assay: Antimicrobial activity against Staphylococcus epidermidis; type: functional
[2] = system: L1210; assay: Cytotoxicity against mouse L1210 cells relative to efrapeptin G; type: functional
[3] = Staphylococcus epidermidis, read-out: MIC

MIC [1] [µg/mL] | Compound | MIC [1, 3] [µg/mL] | Activity [2]
 | CC[C@H](C)[C@H](NC(=O)[C@H](C(C)C)N(C)C(=O)[C@H](CC(C)C)N(C)C(=O)[C@@H](NC(=O)[C@@H](CCC(N)=O)NC(C)=O)C(C)C)C(=O)N(C)[C@H](C(=O)N(C)[C@H](C(=O)N(C)[C@H](C(=O)O)[C@@H](C)CC)[C@@H](C)CC)[C@@H](C)CC | > 400 | 1
50 (≈ 48.2 µM) | CC[C@H](C)[C@H](NC(=O)[C@H](CC(C)C)N(C)C(=O)[C@@H](NC(=O)[C@@H](CCC(N)=O)NC(C)=O)[C@@H](C)CC)C(=O)N(C)[C@H](C(=O)N(C)[C@H](C(=O)N(C)[C@H](C(=O)N(C)[C@H](C(=O)O)[C@@H](C)CC)[C@@H](C)CC)[C@@H](C)CC)C(C)C | 25 (≈ 24.1 µM) | 
 | CC[C@](C)(NC(=O)[C@H](CC(C)C)NC(=O)[C@H](C)NC(=O)C(C)(C)NC(=O)[C@@H]1CCCCN1C(=O)C(C)(C)NC(=O)C(C)(C)NC(=O)CNC(=O)CCNC(=O)[C@H](CC(C)C)NC(=O)C(C)(C)NC(=O)[C@](C)(CC)NC(=O)[C@@H]1CCCCN1C(=O)C(C)(C)NC(=O)[C@@H]1CCCCN1C(C)=O)C(=O)N[C@@H](CC(C)C)C[N+]1=C2CCCN2CCC1 [EFRAPEPTIN G] (Ac-[Pip][Aib][Pip][Iva][Aib]L[βAla]G[Aib][Aib][Pip][Aib]AL[Iva]-X1) | 80 | 3300
 | CN[C@H](CC(C)C)C(=O)N[C@H]1C(=O)N[C@@H](CC(N)=O)C(=O)N[C@H]2C(=O)N[C@H]3C(=O)N[C@H](C(=O)N[C@H](C(=O)O)c4cc(O)cc(O)c4-c4cc3ccc4O)[C@H](O)c3ccc(c(Cl)c3)Oc3cc2cc(c3O[C@@H]2O[C@H](CO)[C@@H](O)[C@H](O)[C@H]2O[C@H]2C[C@](C)(N)[C@H](O)[C@H](C)O2)Oc2ccc(cc2Cl)[C@H]1O [VANCOMYCIN] | 0.63 (≈ 0.435 µM) | 
